Assay results reported in patent US9234848B2, “Compounds having chromophore and photoreactive groups” (CENTRE NATIONAL DE LA RECHERCHE SCIENTIFIQUE (C.N.R.S.), priority 2011, dated 2016).

Biological target: T1, Halobacterium salinarum bacterio-rhodopsin (Halobacterium salinarum, UniProt P02945)
T1 construct: purchased SIGMA
T1 sequence (P02945 14-262): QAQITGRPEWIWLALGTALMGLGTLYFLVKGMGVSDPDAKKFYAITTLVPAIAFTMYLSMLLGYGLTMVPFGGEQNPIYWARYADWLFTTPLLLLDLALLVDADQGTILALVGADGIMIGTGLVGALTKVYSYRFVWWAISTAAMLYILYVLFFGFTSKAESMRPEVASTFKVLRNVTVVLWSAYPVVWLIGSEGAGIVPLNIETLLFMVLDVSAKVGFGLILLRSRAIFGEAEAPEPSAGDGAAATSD
Assay: Photomarking of bacteriorhodopsin (covalent bridging after UV irradiation, fluorescence detected on gel)
Assay type: biochemical
Conditions: compound in DPC micelles (1:50 molar), protein-compound molar ratio 1:5, 1 hour in darkness at 4° C., 45 s UV irradiation, gel read on Fluorimager with rhodamine filter
Protocol: • Reagents: • Dodecylphosphocholine (DPC) and Halobacterium salinarum bacterio-rhodopsin are from SIGMA. Egg yolk phosphatidylcholine (PC) and cholesterol (chol, 99% pure) are from Avanti Polar Lipids (Alabaster, USA). • Preparation of the Liposomes: • PC, chol and the lipid tool (12a-c) (molar ratio 65:30:5) dissolved in chloroform are mixed in a test tube. After evaporation of the solvent with heat (45 mins at 37° C.), the dry film is hydrated by adding 300 μl of PBS at pH 7.4 in order to obtain a final concentration of lipids of 5 mM. The mixture is stirred and the resulting suspension is heated to 37° C., and then cooled in liquid nitrogen 5 times, and then passed through an extruder equipped with two 100 nm filters (35 passages). • Fluorescence Spectroscopy: • The excitation and emission spectra of the probe compounds according to the invention, within liposomes are recorded at 32° C. on a TECAN Infinite M1000 spectrofluorimeter. The lipid composition of the liposomes is PC:chol:lipid-tool 65:30:5 (molar ratio). The <> control liposomes consist of PC:chol, and their residual fluorescence is subtracted from the measured fluorescence spectra. • Photomarking of Bacteriorhodopsin: • DPC is added to a compound as a solution in chloroform-methanol (2/1, v/v) in the compound/detergent proportion of 1:50 molar. After evaporation in a high vacuum for 2 hours, the dry lipid film is hydrated by adding 50 μL of distilled water and 50 μl of Tris-HCl pH 8.0. The bacterio-rhodopsin resuspended in distilled water, is incubated with the compounds according to invention in detergent micelles, in a protein-compound molar ratio of 1:5. […] After migration, the gel is first analyzed on a Fluorimager Typhoon 8600 equipped with a rhodamine filter, in order to detect fluorescence; the gel is then colored with Coomassie blue for viewing all the protein bands. […]

## CCCCCCc1ccc(C(=O)c2ccc(CCCCCC(=O)O)cc2)cc1 [1a, 6-(4-(4-n-hexylbenzoyl)phenyl)hexanoic acid]
  Intensity of the photomarking signal (arbitrary units - AU): 5 AU

## Cc1ccc(C(=O)c2ccc(CCCCCCCCCCC(=O)O)cc2)cc1 [1b]
  Intensity of the photomarking signal (arbitrary units - AU): 10 AU

## CCCCCCCCCCc1ccc(C(=O)c2ccc(CC(=O)O)cc2)cc1 [1c, (4-(4-decylbenzoyl)phenyl)ethanoic acid]
  Intensity of the photomarking signal (arbitrary units - AU): 1 AU
